Experimental data: patent publication US20230047788A1, “COMPOSITIONS COMPRISING 5-CHOLESTEN-3, 25-DIOL, 3-SULFATE (25HC3S) OR PHARMACEUTICALLY ACCEPTABLE SALT THEREOF AND AT LEAST ONE CYCLIC OLIGOSACCHARIDE” (Virginia Commonwealth University, priority 2016, published 2023)
Where “and” joins values, the source holds several entries; their conditions need not be identical. Equal entries are not always repeated.

Experiments:
[1] = Solubility of 25HC3S in alpha-, beta- and gamma-cyclodextrin, 10 mM phosphate buffer pH 7.4; assay type: physicochemical; conditions: for repeated solubility of 25HC3S: repeated experiment
Method: The solubility of 25HC3S at ambient room temperature for one day in 5 and 10% (w/v) alpha cyclodextrin (α-CD), 1% (w/v) beta cyclodextrin (β-CD) and 5 and 10% (w/v) gamma cyclodextrin (γ-CD), each containing 10 mM phosphate buffer at pH 7.4 was determined by an HPLC method.
α-CD, β-CD and γ-CD were used in the study. Sodium phosphate monobasic, monohydrate and sodium phosphate, dibasic, anhydrous were used to prepare 10 mM phosphate buffer at pH 7.4.
Approximately 30 to 50 mg of 25HC3S was weighed into a 20 mL vial (5 vials total, one vial for each vehicle). Approximately 8 mL each of 5 and 10% (w/v) α-CD, 1% (w/v) β-CD, and 5 and 10% (w/v) γ-CD containing 10 mM phosphate buffer at pH 7.4 was added to each vial, respectively. The samples were sonicated and vortexed to disperse the drug. The drug suspensions in these 5 vials were stirred at 500 rpm at ambient RT (20.0-22.2° C.). On day 1, approximately 1.2 mL each of the suspensions was transferred into 2 mL conical vials (a total of 5 vials for each suspension) and centrifuged at 12,000 rpm for 10 min. Approximately 1 mL of the supernatant from each suspension (prior to filtration) was used for HPLC analysis. The supernatants for the rest of the vials from the same suspension were combined together and filtered through […], 13 mm in diameter Acrodisk syringe filter with Nylon membrane. The first 2-mL of filtrate was discarded. The next 2 consecutive filtrates of 0.5-0.7 mL each were collected into HPLC vials for analysis.

[2] = tested on: GI-ARS model (partial shielding irradiation); test: Clinical signs and survival in rodent model of gastrointestinal acute radiation syndrome (GI-ARS); assay type: in vivo, C57BL/6J mice
Method: The subjects for the two studies outlined here were (A) Study 1: 20 male C57BL/6J mice (8 weeks of age; 23-28 g) and (B) Study 2: 16 male C57BL/6J mice (8 weeks of age; 23-28 g). Following arrival, all animals were subjected to a health assessment and evaluation was performed in accordance with the standard operating procedures and by technical staff working under the supervision of the clinical veterinarian. An acclimation period of at least 11 days was allowed between receipt of the animals and irradiation to accustom the animals to the laboratory environment.
A solution formulation of 25HC3S sodium salt and its respective vehicle was used for the study. The Vehicle was a solution of 4% (w/v) hydroxypropyl betadex in 75% (v/v) of 0.9% (w/v) sodium chloride and 25% (v/v) sterile water. 25HC3S sodium salt was pre-dissolved into the Vehicle solution to result in a drug concentration of 5 mg/mL. The 25HC3S solution was ready-to-use at the start of dosing. In Study 1, the vehicle was stored at 2-8° C. whereas the 25HC3S solution was stored at room temperature prior and throughout the study duration; in Study 2, both vehicle and 25HC3S solutions were stored at 2-8° C.
Partial shielding irradiation (PSI) exposure at a high radiation dose (>10Gy) is an established approach to mimic GI-ARS in mice. Animals were exposed to whole-body irradiation with partial shielding (Day 0) in a custom designed restrainer where their left pelvic limb was extended and maintained in position with an elastic band. The left pelvic limb was shielded with a cerrobend structure. Animals received a whole body irradiation dose with partial shielding of 15.78 Gy (LD50/22) for Study 1 whereas mice were exposed to 15.16 Gy (LD25/22) in Study 2. The dose rate of the ^60Co gamma source was fixed at approximately 60 cGy per minute. The in-life portion of both the studies after PSI was 22 days.
Study 1: Mice (N=20/group) were administered once daily with 25HC3S (or vehicle) for 7 consecutive days starting on the day following irradiation (Day 1) by subcutaneous injection between scapulas using a 27G needle attached to a syringe. The dose volume was 10 mL/kg for all dose routes and the dose was adjusted based on the most recent body weight. Study 2: Mice (N=16/group) were administered with 25HC3S (or vehicle) for a total of […]. Animals were given drug (or vehicle) once on the day following irradiation (Day 1) and once on Day 4 by subcutaneous injection between scapulas using a 27G needle attached to a syringe. The dose volume was 10 mL/kg for all dose routes and the dose was adjusted based on the most recent body weight.
Mortality checks were recorded concomitantly with the cage-side observations, during all phases of the study. Mortality checks for all animals were also recorded at least once during the night from Day 5 through Day 8. Clinical signs (ill health, behavioral changes, fur color/consistency changes etc.) were also recorded on all surviving animals twice daily throughout observation period (described in Table 10). Additional clinical observations were performed when deemed necessary. All observations were recorded as cage side clinical signs or detailed clinical examination when possible. A detailed clinical examination was performed on each animal at least as follows: prior to animal assignment, one day prior to irradiation (Day −1) then every 3 days throughout the observation period. […]

C[C@H](CCCC(C)(C)O)[C@H]1CC[C@H]2[C@@H]3CC=C4C[C@@H](OS(=O)(=O)[O-])CC[C@]4(C)[C@H]3CC[C@]12C.[Na+] [25HC3S, 5-cholesten-3, 25-diol, 3-sulfate]
25HC3S Solubility ([1]; 0 cyclodextrin, 10 mM phosphate pH 7.4, room temperature): 6 μg/mL and 0.012 mM
25HC3S Solubility ([1]; 1% (w/v) beta-CD): 4.314 mM
Complexation with CD ([1]; 1% (w/v) beta-CD): yes
Ratio of CD/25HC3S ([1]; 1% (w/v) beta-CD): 2 mM/mM
25HC3S Solubility ([1]; 1% (w/v) beta-CD (10 mg/mL), 10 mM phosphate pH 7.4, RT, one day): 2177.4 µg/mL
25HC3S Solubility ([1]; 5% (w/v) alpha-CD): 0.065 mM
Complexation with CD ([1]; 5% (w/v) alpha-CD): no
Ratio of CD/25HC3S ([1]; 5% (w/v) alpha-CD): 791 mM/mM
25HC3S Solubility ([1]; 5% (w/v) alpha-CD (50 mg/mL), 10 mM phosphate pH 7.4, RT, one day): 32.9 µg/mL
25HC3S Solubility ([1]; 5% (w/v) gamma-CD): 1.118 mM
Complexation with CD ([1]; 5% (w/v) gamma-CD): no
Ratio of CD/25HC3S ([1]; 5% (w/v) gamma-CD): 34 mM/mM
25HC3S Solubility ([1]; 5% (w/v) gamma-CD (50 mg/mL), 10 mM phosphate pH 7.4, RT, one day): 564.4 µg/mL
repeated solubility of 25HC3S ([1]; 5% (w/v) γ-CD): 292.4 µg/mL
25HC3S Solubility ([1]; 10% (w/v) alpha-CD): 0.089 mM
Complexation with CD ([1]; 10% (w/v) alpha-CD): no
Ratio of CD/25HC3S ([1]; 10% (w/v) alpha-CD): 1155 mM/mM
25HC3S Solubility ([1]; 10% (w/v) alpha-CD (100 mg/mL), 10 mM phosphate pH 7.4, RT, one day): 45 µg/mL
25HC3S Solubility ([1]; 10% (w/v) gamma-CD): 0.301 mM
Complexation with CD ([1]; 10% (w/v) gamma-CD): no
Ratio of CD/25HC3S ([1]; 10% (w/v) gamma-CD): 256 mM/mM
25HC3S Solubility ([1]; 10% (w/v) gamma-CD (100 mg/mL), 10 mM phosphate pH 7.4, RT, one day): 152.1 µg/mL
repeated solubility of 25HC3S ([1]; 10% (w/v) γ-CD): 98.2 µg/mL
Survival ([2]; Study 1, 15.78 Gy, by Day 7): 45%
mortality, treatment vs vehicle group ([2]; Study 1, 15.78 Gy, sc once daily for 7 days from Day 1): not significant
average number of clinical signs/mice vs vehicle-treated group ([2]; Study 1, Days 5-22, animals that survived the entire in-life portion): statistically lower
Survival improved by (vs vehicle) ([2]; Study 2, 15.16 Gy): 18.75%
Survival ([2]; Study 2, 15.16 Gy, sc doses on Day 1 and Day 4, 50 mg/kg/dose): 81.25%
